Laboratory results from article PMC9863297, “Intermolecular Interactions of Edaravone in Aqueous Solutions of Ethaline and Glyceline Inferred from Experiments and Quantum Chemistry Computations” (Molecules, 2023).
Like-named read-outs stand apart in the source and are kept apart here.

Assay: Edaravone solubility, slurry/shake-flask method with spectrophotometric determination at 243 nm
Type: physicochemical
Conditions: thermodynamic from solid, read-out: cE solubility concentration
Experimental: The first step in obtaining a calibration curve was the preparation of a stock solution of edaravone with a concentration of 2.3 mg/mL. This initial solution was successfully diluted in 10 mL volumetric flasks with methanol and the obtained solutions with decreasing concentrations were measured spectrophotometrically. […] Three separate curves were obtained, and the final curve resulted from averaging. […] The limits of detection (LOD) and quantification (LOQ) were calculated as 5.899∙10^−4 mg/mL and 1.770∙10^−3 mg/mL, respectively.
All of the studied deep eutectic solvents included choline chloride, while the second constituent was either glycerol or ethylene glycol. In order to prepare a DES formulation, choline chloride was mixed with the second compound in different molar ratios in sealed test tubes and placed in a water bath at 363.15 K until the formation of a uniform solution. The obtained DES were either used in their neat form or water was added to them in different proportions in order to form binary systems.
During the next stage, edaravone was added in excess amounts to the test tubes containing both neat DES and binary mixtures, which enabled us to obtain its saturated solutions. Samples prepared in such a manner were placed in an Orbital Shaker Incubator ES-20/60 from Biosan (Riga, Latvia) and incubated for 24 h at different temperatures, namely 298.15 K, 303.15 K, 308.15 K and 313.15 K. The temperature adjustment accuracy was 0.1 K and its variability in a 24 h cycle was ±0.5 K. Apart from heating, all of the samples were mixed at 60 rev/min. The increased viscosity and density of DES systems required the samples to be centrifuged at 1000 rev/min for 5 min with the use of EBA 20 centrifuge from Hettich (Tuttlingen, Germany) enabling the undissolved precipitate to remain on the bottom of the test tubes. Next, the samples were filtered using a syringe equipped with a PTFE syringe filer with 0.22 µm pore size. In order to avoid precipitation, the test tubes, syringes and filters were initially heated at a temperature equal to the one of the handled samples. Finally, small amounts of the obtained filtrate were transferred to test tubes filled with methanol and the diluted samples were measured spectrophotometrically. Additionally, for the determination of the mole fractions of edaravone, the density of the samples was measured by weighing a fixed volume of the solution in 10 mL volumetric flasks.
For determining the solubility of edaravone in the studied systems, the samples prepared, as described above, were measured spectrophotometrically using an A360 spectrophotometer from AOE Instruments (Shanghai, China). The spectra were recorded in the 190 nm to 500 nm wavelength range and 1 nm resolution. Methanol was used for the initial calibration of the spectrophotometer and for the dilution of the measured samples, which was conducted in order for the absorbance values to remain below 2.5. The absorbance values at 243 nm were taken into account and based on the calibration curve prepared earlier, the concentration of edaravone in the samples was determined, followed by its mole fractions. The values were averaged from three separate measurements.

solubility at 24 h (25 °C, aqueous with cosolvent or surfactant or cyclodextrin, water + ETA (ChCl:EG 1:2), x*ETA = 0.2, 298.15 K): 221 mg/mL
solubility at 24 h (25 °C, aqueous with cosolvent or surfactant or cyclodextrin, water + ETA (ChCl:EG 1:2), x*ETA = 0.4, 298.15 K): 407 mg/mL
solubility at 24 h (25 °C, aqueous with cosolvent or surfactant or cyclodextrin, water + ETA (ChCl:EG 1:2), x*ETA = 0.5, 298.15 K): 457 mg/mL
solubility at 24 h (25 °C, aqueous with cosolvent or surfactant or cyclodextrin, water + GLE (ChCl:GL 1:2), x*GLE = 0.2, 298.15 K): 115 mg/mL
solubility at 24 h (25 °C, aqueous with cosolvent or surfactant or cyclodextrin, water + GLE (ChCl:GL 1:2), x*GLE = 0.4, 298.15 K): 233 mg/mL
solubility at 24 h (25 °C, aqueous with cosolvent or surfactant or cyclodextrin, water + GLE (ChCl:GL 1:2), x*GLE = 0.5, 298.15 K): 299 mg/mL
solubility at 24 h (25 °C, aqueous with cosolvent or surfactant or cyclodextrin, water + GLE (ChCl:GL 1:2), x*GLE = 0.8, 298.15 K): 266 mg/mL
solubility at 24 h (25 °C, organic solvent or mixture, neat DES choline chloride + glycerol (GLE) 1:2 molar ratio (x*GLE = 1.0), 298.15 K): 191 mg/mL
solubility at 24 h (25 °C, organic solvent or mixture, neat DES choline chloride + glycerol (GLE) 1:4 molar ratio, 298.15 K): 177 mg/mL
solubility at 24 h (30 °C, aqueous with cosolvent or surfactant or cyclodextrin, water + ETA (ChCl:EG 1:2), x*ETA = 0.2, 303.15 K): 270 mg/mL
solubility at 24 h (30 °C, aqueous with cosolvent or surfactant or cyclodextrin, water + ETA (ChCl:EG 1:2), x*ETA = 0.4, 303.15 K): 505 mg/mL
solubility at 24 h (30 °C, aqueous with cosolvent or surfactant or cyclodextrin, water + ETA (ChCl:EG 1:2), x*ETA = 0.5, 303.15 K): 554 mg/mL
solubility at 24 h (30 °C, aqueous with cosolvent or surfactant or cyclodextrin, water + GLE (ChCl:GL 1:2), x*GLE = 0.2, 303.15 K): 148 mg/mL
solubility at 24 h (30 °C, aqueous with cosolvent or surfactant or cyclodextrin, water + GLE (ChCl:GL 1:2), x*GLE = 0.4, 303.15 K): 328 mg/mL
solubility at 24 h (30 °C, aqueous with cosolvent or surfactant or cyclodextrin, water + GLE (ChCl:GL 1:2), x*GLE = 0.5, 303.15 K): 415 mg/mL
solubility at 24 h (30 °C, aqueous with cosolvent or surfactant or cyclodextrin, water + GLE (ChCl:GL 1:2), x*GLE = 0.6, 303.15 K): 464 mg/mL
solubility at 24 h (30 °C, aqueous with cosolvent or surfactant or cyclodextrin, water + GLE (ChCl:GL 1:2), x*GLE = 0.8, 303.15 K): 364 mg/mL
solubility at 24 h (30 °C, organic solvent or mixture, neat DES choline chloride + glycerol (GLE) 1:1 molar ratio, 303.15 K): 203 mg/mL
solubility at 24 h (30 °C, organic solvent or mixture, neat DES choline chloride + glycerol (GLE) 1:2 molar ratio (x*GLE = 1.0), 303.15 K): 282 mg/mL
solubility at 24 h (30 °C, organic solvent or mixture, neat DES choline chloride + glycerol (GLE) 1:4 molar ratio, 303.15 K): 246 mg/mL
solubility at 24 h (35 °C, aqueous with cosolvent or surfactant or cyclodextrin, water + ETA (ChCl:EG 1:2), x*ETA = 0.2, 308.15 K): 331 mg/mL
solubility at 24 h (35 °C, aqueous with cosolvent or surfactant or cyclodextrin, water + ETA (ChCl:EG 1:2), x*ETA = 0.4, 308.15 K): 603 mg/mL
solubility at 24 h (35 °C, aqueous with cosolvent or surfactant or cyclodextrin, water + GLE (ChCl:GL 1:2), x*GLE = 0.2, 308.15 K): 201 mg/mL
solubility at 24 h (35 °C, aqueous with cosolvent or surfactant or cyclodextrin, water + GLE (ChCl:GL 1:2), x*GLE = 0.4, 308.15 K): 402 mg/mL
solubility at 24 h (35 °C, aqueous with cosolvent or surfactant or cyclodextrin, water + GLE (ChCl:GL 1:2), x*GLE = 0.5, 308.15 K): 518 mg/mL
solubility at 24 h (35 °C, aqueous with cosolvent or surfactant or cyclodextrin, water + GLE (ChCl:GL 1:2), x*GLE = 0.6, 308.15 K): 567 mg/mL
solubility at 24 h (35 °C, aqueous with cosolvent or surfactant or cyclodextrin, water + GLE (ChCl:GL 1:2), x*GLE = 0.8, 308.15 K): 472 mg/mL
solubility at 24 h (35 °C, organic solvent or mixture, neat DES choline chloride + glycerol (GLE) 1:1 molar ratio, 308.15 K): 274 mg/mL
solubility at 24 h (35 °C, organic solvent or mixture, neat DES choline chloride + glycerol (GLE) 1:2 molar ratio (x*GLE = 1.0), 308.15 K): 369 mg/mL
solubility at 24 h (35 °C, organic solvent or mixture, neat DES choline chloride + glycerol (GLE) 1:4 molar ratio, 308.15 K): 336 mg/mL
solubility at 24 h (40 °C, aqueous with cosolvent or surfactant or cyclodextrin, water + ETA (ChCl:EG 1:2), x*ETA = 0.2, 313.15 K): 382 mg/mL
solubility at 24 h (40 °C, aqueous with cosolvent or surfactant or cyclodextrin, water + ETA (ChCl:EG 1:2), x*ETA = 0.4, 313.15 K): 684 mg/mL
solubility at 24 h (40 °C, aqueous with cosolvent or surfactant or cyclodextrin, water + GLE (ChCl:GL 1:2), x*GLE = 0.2, 313.15 K): 252 mg/mL
solubility at 24 h (40 °C, aqueous with cosolvent or surfactant or cyclodextrin, water + GLE (ChCl:GL 1:2), x*GLE = 0.4, 313.15 K): 514 mg/mL
solubility at 24 h (40 °C, aqueous with cosolvent or surfactant or cyclodextrin, water + GLE (ChCl:GL 1:2), x*GLE = 0.5, 313.15 K): 647 mg/mL
SMILES: CC1=NN(c2ccccc2)C(=O)C1 [edaravone, 5-methyl-2-phenyl-4H-pyrazol-3-one]
